Experimental data taken from publication PMC3322948, “Phase I first-in-human study of TAK-285, a novel investigational dual HER2/EGFR inhibitor, in cancer patients” (British Journal of Cancer, 2012).
Where two headings read alike, the source gives them in different places.

How the values were obtained:
[1] = Plasma pharmacokinetics after oral TAK-285 (LC-MS/MS, noncompartmental); format: in vivo, human (Japanese patients); settings: for Cmax / half-life / Tmax / AUC(0-inf) / AUC: human, plasma, oral; for Tmax: median (range); for AUC: read-out: AUC0–tau
Method: In the dose escalation cohort, plasma samples for PK analysis were collected at predose and up to 72 h after single dose administration and on day 21 after repeated administration of TAK-285. Urine samples were also collected up to 24-h postdose. In the repeated administration cohort, plasma samples for PK analysis were collected at predose and up to 12-h postdose on days 1 and 28. Urine samples were also collected up to 12-h postdose each day. Concentrations of TAK-285 and M-I in plasma and urine were determined using validated liquid chromatography tandem mass spectrometry (LC-MS/MS) methods. The plasma and urine samples were treated by liquid–liquid extraction and subjected to LC-MS/MS equipped with a reversed-phase column. The lower limit of quantification for both TAK-285 and M-I was 0.2 ng ml^–1 in plasma and 2 ng ml^–1 in urine when 50 μl of the plasma sample and 55 μl of the urine sample (containing 5 μl of Tween 80 solution) were analysed. Tween 80 solution was added to the urine sample to prevent the adsorption of analytes onto the sample containers. The accuracy of the plasma assay (percentage deviation from nominal) ranged from −10.8 to 11.0% for TAK-285, and from −14.0 to 13.8% for M-I. […] Pharmacokinetic parameters of TAK-285 and M-I were estimated for each patient using noncompartmental methods with Phoenix WinNonlin Version 6.1 (Pharsight, Mountain View, CA, USA).

[2] = system: EGFR; settings: biochemical; ref Aertgeerts et al, 2011; read-out: 50% inhibition concentration, EGFR phosphorylation; cited from earlier work
[3] = system: circulating tumour cells; assay: Circulating tumour cell enumeration (CellSearch); format: in vivo, human (Japanese patients)
Method: At screening and on day 15 after the start of repeated administration, 20 ml of peripheral blood was obtained and divided into two 10 ml exclusive use containers (CellSave tubes) filled with 300 μl of preservative solution (4.6% Na-ethylenediaminetetraacetate, 36% cell preservative, 0.36% polyethylene glycol and 0.4% inert ingredients). The samples were stored at room temperature and processed within 72 h after sampling. The CellSearch System (Veridex LLC, Raritan, NJ, USA) was used for the isolation and enumeration of circulating tumour cells (CTCs), which were defined as nucleated cells lacking cluster of differentiation 45 and expressing cytokeratin.

[4] = system: HER2; settings: biochemical; ref Aertgeerts et al, 2011; read-out: 50% inhibition concentration, HER2 phosphorylation; cited from earlier work
[5] = 50 mg, single dosing, 50 mg b.i.d., dose escalation cohort, mean (s.d.)
[6] = 50 mg, single dosing, 50 mg q.d., dose escalation cohort, mean (s.d.)
[7] = 100 mg, single dosing, 100 mg b.i.d., dose escalation cohort, mean (s.d.)
[8] = 200 mg, single dosing, 200 mg b.i.d., dose escalation cohort, mean (s.d.)
[9] = 300 mg, single dosing, 300 mg b.i.d., repeated administration cohort, mean (s.d.)
[10] = multiple versus single dosing, across doses

CC(C)(O)CC(=O)NCCn1ccc2ncnc(Nc3ccc(Oc4cccc(C(F)(F)F)c4)c(Cl)c3)c21 [TAK-285]
Cmax ([1]; 50 mg b.i.d., multiple dosing day 21, 50 mg b.i.d., dose escalation cohort, mean (s.d.)): 358 ng/mL
half-life ([1]; 50 mg b.i.d., multiple dosing day 21, 50 mg b.i.d., dose escalation cohort, mean (s.d.), read-out: t1/2 (converted)): 7.49 h
Tmax ([1]; 50 mg b.i.d., multiple dosing day 21, 50 mg b.i.d., dose escalation cohort): 2.05 h
Cmax ([1]; 50 mg q.d., multiple dosing day 21, 50 mg q.d., dose escalation cohort, mean (s.d.)): 260 ng/mL
half-life ([1]; 50 mg q.d., multiple dosing day 21, 50 mg q.d., dose escalation cohort, mean (s.d.), read-out: t1/2 (converted)): 8.69 h
Tmax ([1]; 50 mg q.d., multiple dosing day 21, 50 mg q.d., dose escalation cohort): 2 h
AUC(0-inf) [1, 5]: 1970 ng·h/mL
Cmax [1, 5]: 234 ng/mL
half-life ([1]; 50 mg, single dosing, 50 mg b.i.d., dose escalation cohort, mean (s.d.), read-out: t1/2 (converted)): 6.45 h
Tmax ([1]; 50 mg, single dosing, 50 mg b.i.d., dose escalation cohort): 1 h
AUC(0-inf) [1, 6]: 1730 ng·h/mL
Cmax [1, 6]: 214 ng/mL
half-life ([1]; 50 mg, single dosing, 50 mg q.d., dose escalation cohort, mean (s.d.), read-out: t1/2 (converted)): 7.27 h
Tmax ([1]; 50 mg, single dosing, 50 mg q.d., dose escalation cohort): 1.49 h
Cmax ([1]; 100 mg b.i.d., multiple dosing day 21, 100 mg b.i.d., dose escalation cohort, mean (s.d.)): 774 ng/mL
half-life ([1]; 100 mg b.i.d., multiple dosing day 21, 100 mg b.i.d., dose escalation cohort, mean (s.d.), read-out: t1/2 (converted)): 7.79 h
Tmax ([1]; 100 mg b.i.d., multiple dosing day 21, 100 mg b.i.d., dose escalation cohort): 2 h
AUC(0-inf) [1, 7]: 2820 ng·h/mL
Cmax [1, 7]: 379 ng/mL
half-life ([1]; 100 mg, single dosing, 100 mg b.i.d., dose escalation cohort, mean (s.d.), read-out: t1/2 (converted)): 9.43 h
Tmax ([1]; 100 mg, single dosing, 100 mg b.i.d., dose escalation cohort): 2 h
Cmax ([1]; 200 mg b.i.d., multiple dosing day 21, 200 mg b.i.d., dose escalation cohort, mean (s.d.)): 2420 ng/mL
half-life ([1]; 200 mg b.i.d., multiple dosing day 21, 200 mg b.i.d., dose escalation cohort, mean (s.d.), read-out: t1/2 (converted)): 6.95 h
Tmax ([1]; 200 mg b.i.d., multiple dosing day 21, 200 mg b.i.d., dose escalation cohort): 2 h
AUC(0-inf) [1, 8]: 9530 ng·h/mL
Cmax [1, 8]: 965 ng/mL
half-life ([1]; 200 mg, single dosing, 200 mg b.i.d., dose escalation cohort, mean (s.d.), read-out: t1/2 (converted)): 6.57 h
Tmax ([1]; 200 mg, single dosing, 200 mg b.i.d., dose escalation cohort): 2.48 h
Cmax ([1]; 300 mg b.i.d., multiple dosing day 21, 300 mg b.i.d., dose escalation cohort, mean (s.d.)): 3700 ng/mL
half-life ([1]; 300 mg b.i.d., multiple dosing day 21, 300 mg b.i.d., dose escalation cohort, mean (s.d.), read-out: t1/2 (converted)): 8.25 h
Tmax ([1]; 300 mg b.i.d., multiple dosing day 21, 300 mg b.i.d., dose escalation cohort): 2 h
Cmax ([1]; 300 mg, multiple dosing day 28, 300 mg b.i.d., repeated administration cohort, mean (s.d.)): 2810 ng/mL
half-life ([1]; 300 mg, multiple dosing day 28, 300 mg b.i.d., repeated administration cohort, mean (s.d.), read-out: t1/2 (converted)): 11.1 h
Tmax ([1]; 300 mg, multiple dosing day 28, 300 mg b.i.d., repeated administration cohort): 2.97 h
Cmax ([1]; 300 mg, single dosing, 300 mg b.i.d., dose escalation cohort, mean (s.d.)): 1350 ng/mL
half-life ([1]; 300 mg, single dosing, 300 mg b.i.d., dose escalation cohort, mean (s.d.), read-out: t1/2 (converted)): 7.5 h
Tmax ([1]; 300 mg, single dosing, 300 mg b.i.d., dose escalation cohort): 2 h
AUC(0-inf) [1, 9]: 9210 ng·h/mL
Cmax [1, 9]: 983 ng/mL
half-life ([1]; 300 mg, single dosing, 300 mg b.i.d., repeated administration cohort, mean (s.d.), read-out: t1/2 (converted)): 6.1 h
Tmax ([1]; 300 mg, single dosing, 300 mg b.i.d., repeated administration cohort): 2.03 h
half-life ([1]; at all doses, single dose, read-out: estimated terminal-phase half-life (t1/2)): 6 to 9 h
AUC ([1]; multiple dosing day 21, 50 mg b.i.d., dose escalation cohort, mean (s.d.)): 2720 ng·h/mL
AUC ([1]; multiple dosing day 21, 50 mg q.d., dose escalation cohort, mean (s.d.)): 2210 ng·h/mL
AUC ([1]; multiple dosing day 21, 100 mg b.i.d., dose escalation cohort, mean (s.d.)): 6090 ng·h/mL
circulating tumour cell (CTC) changes after treatment ([3]; screening versus cycle 1 day 15): did not show significant changes
patients with unfavourable baseline CTC count converted to favourable ([3]; seven patients with ⩾5 cells per 7.5 ml blood at baseline): none
IC50 [4]: 17 nM
